Columns and labels:
[1] = target: T1, Dihydroorotate dehydrogenase (quinone), mitochondrial [30-395] (Rattus norvegicus, UniProt Q63707); test: Enzyme Inhibition Assay; details: pH 8; 30 °C
T1 construct: 30-395

[2] = target: Dihydroorotate dehydrogenase (quinone), mitochondrial (Rattus norvegicus, UniProt Q63707); test: Enzyme Inhibition Assay; details: pH 8; 30 °C
Dihydroorotate dehydrogenase (quinone), mitochondrial, sequence (Q63707 whole entry): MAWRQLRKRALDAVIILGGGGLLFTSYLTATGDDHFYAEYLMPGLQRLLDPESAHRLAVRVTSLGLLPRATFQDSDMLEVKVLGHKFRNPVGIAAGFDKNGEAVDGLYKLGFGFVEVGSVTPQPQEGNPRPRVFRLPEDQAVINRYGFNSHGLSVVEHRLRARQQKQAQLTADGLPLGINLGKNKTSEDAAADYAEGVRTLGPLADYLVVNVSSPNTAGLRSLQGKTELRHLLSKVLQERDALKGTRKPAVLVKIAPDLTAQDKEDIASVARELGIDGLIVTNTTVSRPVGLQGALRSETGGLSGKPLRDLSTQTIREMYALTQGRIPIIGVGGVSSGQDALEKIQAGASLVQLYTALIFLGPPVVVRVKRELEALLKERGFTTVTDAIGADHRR

T1 sequence (Q63707 30-395): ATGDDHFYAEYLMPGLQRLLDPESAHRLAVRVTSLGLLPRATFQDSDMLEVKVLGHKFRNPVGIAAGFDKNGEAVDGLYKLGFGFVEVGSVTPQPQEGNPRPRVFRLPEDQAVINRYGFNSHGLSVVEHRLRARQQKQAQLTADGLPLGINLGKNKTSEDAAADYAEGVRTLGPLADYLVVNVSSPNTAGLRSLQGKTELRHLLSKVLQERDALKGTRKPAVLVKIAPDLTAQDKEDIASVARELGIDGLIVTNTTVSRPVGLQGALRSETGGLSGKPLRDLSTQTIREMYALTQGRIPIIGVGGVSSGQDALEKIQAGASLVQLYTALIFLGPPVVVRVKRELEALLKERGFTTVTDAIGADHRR

IC50 [1]: 904 nM
IC50 [2]: 698 nM
SMILES: O=C1C(=O)C(C2CCC(c3ccc(Cl)cc3)CC2)C(=O)c2ccccc21 (configuration not stated) [Mepron]
